# Measured values published in article PMC4579270, “Identification and Characterization of an Irreversible Inhibitor of CDK2” (Chemistry & Biology, 2015).
# What was measured:
# Assay in all cases: Dundee protein kinase screen
# Type in all cases: biochemical
# [1] = target: PAK6 (Homo sapiens, UniProt Q9NQU5); conditions: PAK6, 1µM; read-out: %Remaining activity at 1µM NU6300
# Procedure: (§1) Prior to determining its cellular activity, we carried out a screen to assess its selectivity against a panel of 131 protein kinases under conditions that would not distinguish between a reversible or irreversible mode of action. […] These 13 kinases and 29 additional kinases, selected for their known sensitivity to other inhibitors within the purine series, were then tested in a modified screening format in which the assay was repeated following a 4-hr pre-incubation (Table S3B). […] However, conformational flexibility around the active site may promote such an interaction with a residue from another part of the structure ([Martin et al., 2012]).
# (§2) Table S3, Related to Figure 4. NCL-0006300 protein kinase selectivity. (A) NU6300 was tested at a single concentration of 1µM against 131 protein kinases present in a Dundee protein kinase screen (Bain et al., 2007). Values given are % activity remaining and are the average of duplicate measurements: 0-25% (red), 26-50% (yellow), 51-80% […]
# (§3) (black) and above 81% (green). […]
# [2] = target: NEK2a (Homo sapiens, UniProt P51955); conditions: read-out: %Remaining activity at 1µM NU6300
# Chain of NEK2a (P51955 whole entry): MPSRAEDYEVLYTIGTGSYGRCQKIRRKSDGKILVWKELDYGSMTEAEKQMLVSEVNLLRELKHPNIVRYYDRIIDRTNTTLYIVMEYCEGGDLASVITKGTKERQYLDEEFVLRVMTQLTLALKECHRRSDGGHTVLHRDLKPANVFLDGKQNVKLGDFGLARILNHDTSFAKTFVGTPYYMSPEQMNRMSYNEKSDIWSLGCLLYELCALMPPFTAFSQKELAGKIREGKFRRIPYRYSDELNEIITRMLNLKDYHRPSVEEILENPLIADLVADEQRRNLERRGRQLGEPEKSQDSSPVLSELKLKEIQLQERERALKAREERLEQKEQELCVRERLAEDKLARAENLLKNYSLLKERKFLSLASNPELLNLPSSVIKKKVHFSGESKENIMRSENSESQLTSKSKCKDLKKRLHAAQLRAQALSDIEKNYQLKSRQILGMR
# Procedure: as §1, §2, §3
# [3] = target: YES1 (Homo sapiens, UniProt P07947); conditions: YES1, 1µM; read-out: %Remaining activity at 1µM NU6300
# Chain of YES1 (P07947 whole entry): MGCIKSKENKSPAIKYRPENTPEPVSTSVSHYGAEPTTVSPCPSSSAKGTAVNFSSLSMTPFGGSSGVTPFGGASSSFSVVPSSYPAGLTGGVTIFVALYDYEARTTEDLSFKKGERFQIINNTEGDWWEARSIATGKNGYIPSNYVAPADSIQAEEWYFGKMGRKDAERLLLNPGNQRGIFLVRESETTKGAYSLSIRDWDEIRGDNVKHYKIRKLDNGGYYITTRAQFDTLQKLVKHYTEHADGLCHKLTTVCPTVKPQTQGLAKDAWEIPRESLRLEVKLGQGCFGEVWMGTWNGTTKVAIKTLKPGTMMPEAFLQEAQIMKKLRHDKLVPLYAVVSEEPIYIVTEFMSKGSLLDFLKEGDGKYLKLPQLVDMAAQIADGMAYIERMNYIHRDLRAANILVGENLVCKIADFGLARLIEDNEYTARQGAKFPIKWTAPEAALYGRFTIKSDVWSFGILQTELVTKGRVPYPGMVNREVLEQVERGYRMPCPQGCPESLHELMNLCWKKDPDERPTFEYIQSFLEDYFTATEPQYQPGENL
# Procedure: as §1, §2, §3
# [4] = target: PKBα (Homo sapiens, UniProt P31749); conditions: read-out: %Remaining activity at 1µM NU6300
# Chain of PKBα (P31749 whole entry): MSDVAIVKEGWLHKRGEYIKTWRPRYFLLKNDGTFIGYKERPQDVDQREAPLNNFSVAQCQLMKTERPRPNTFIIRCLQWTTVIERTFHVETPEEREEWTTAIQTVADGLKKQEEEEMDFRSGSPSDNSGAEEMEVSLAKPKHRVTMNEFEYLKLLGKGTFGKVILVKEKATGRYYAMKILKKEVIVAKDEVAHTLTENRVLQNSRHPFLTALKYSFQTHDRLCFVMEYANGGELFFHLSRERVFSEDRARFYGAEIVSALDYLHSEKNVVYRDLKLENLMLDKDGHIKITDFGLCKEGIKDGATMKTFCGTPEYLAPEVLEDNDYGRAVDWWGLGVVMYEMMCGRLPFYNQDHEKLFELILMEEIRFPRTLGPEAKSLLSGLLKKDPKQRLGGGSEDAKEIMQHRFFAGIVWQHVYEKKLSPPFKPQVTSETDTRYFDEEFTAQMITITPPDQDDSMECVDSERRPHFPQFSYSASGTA
# Procedure: as §1, §2, §3
# [5] = target: PKCγ (Homo sapiens, UniProt P05129); conditions: read-out: %Remaining activity at 1µM NU6300
# Procedure: as §1, §2, §3
# [6] = target: OSR1 (Homo sapiens, UniProt O95747); conditions: OSR1, 1µM; read-out: %Remaining activity at 1µM NU6300
# Chain of OSR1 (O95747 whole entry): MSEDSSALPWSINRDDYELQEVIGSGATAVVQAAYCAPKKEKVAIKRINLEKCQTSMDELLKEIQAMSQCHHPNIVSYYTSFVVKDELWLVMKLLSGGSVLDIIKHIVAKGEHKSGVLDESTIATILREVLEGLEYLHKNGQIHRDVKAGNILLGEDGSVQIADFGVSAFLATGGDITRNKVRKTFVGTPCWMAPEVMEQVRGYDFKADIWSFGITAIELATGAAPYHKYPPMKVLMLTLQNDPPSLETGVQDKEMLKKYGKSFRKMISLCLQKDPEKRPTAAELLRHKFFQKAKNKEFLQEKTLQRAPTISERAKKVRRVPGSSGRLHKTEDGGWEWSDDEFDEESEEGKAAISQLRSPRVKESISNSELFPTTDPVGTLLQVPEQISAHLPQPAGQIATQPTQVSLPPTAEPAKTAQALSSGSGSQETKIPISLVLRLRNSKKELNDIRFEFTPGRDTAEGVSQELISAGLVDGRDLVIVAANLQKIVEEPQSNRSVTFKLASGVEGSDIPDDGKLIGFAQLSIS
# Procedure: as §1, §2, §3
# [7] = target: MSK1 (Homo sapiens, UniProt O75582); conditions: MSK1, 1µM; read-out: %Remaining activity at 1µM NU6300
# Chain of MSK1 (O75582 whole entry): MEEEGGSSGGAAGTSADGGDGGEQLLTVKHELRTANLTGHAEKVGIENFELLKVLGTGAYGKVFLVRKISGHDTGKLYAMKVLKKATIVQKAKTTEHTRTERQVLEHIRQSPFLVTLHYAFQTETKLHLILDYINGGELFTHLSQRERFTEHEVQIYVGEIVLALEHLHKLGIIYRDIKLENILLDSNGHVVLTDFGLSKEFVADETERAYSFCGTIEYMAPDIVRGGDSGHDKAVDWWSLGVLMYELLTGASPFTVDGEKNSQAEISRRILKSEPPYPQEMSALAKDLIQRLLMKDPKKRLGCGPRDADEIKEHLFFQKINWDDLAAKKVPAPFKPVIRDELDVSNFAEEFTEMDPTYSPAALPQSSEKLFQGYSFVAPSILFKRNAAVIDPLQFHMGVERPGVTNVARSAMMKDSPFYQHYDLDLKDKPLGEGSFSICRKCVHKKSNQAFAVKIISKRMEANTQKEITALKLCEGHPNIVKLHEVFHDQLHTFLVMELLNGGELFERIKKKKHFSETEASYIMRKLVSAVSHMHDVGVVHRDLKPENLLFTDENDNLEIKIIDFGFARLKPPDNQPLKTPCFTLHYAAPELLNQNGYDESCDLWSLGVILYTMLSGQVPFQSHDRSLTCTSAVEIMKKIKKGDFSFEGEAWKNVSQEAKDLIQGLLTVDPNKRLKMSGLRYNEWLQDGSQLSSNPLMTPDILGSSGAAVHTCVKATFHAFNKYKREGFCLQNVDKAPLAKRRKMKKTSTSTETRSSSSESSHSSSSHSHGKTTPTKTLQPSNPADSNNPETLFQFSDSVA
# Procedure: as §1, §2, §3
# [8] = target: T1, TBK1 (Homo sapiens, UniProt Q9UHD2); conditions: TBK1, 1µM; read-out: %Remaining activity at 1µM NU6300
# T1 sequence (Q9UHD2 1-729): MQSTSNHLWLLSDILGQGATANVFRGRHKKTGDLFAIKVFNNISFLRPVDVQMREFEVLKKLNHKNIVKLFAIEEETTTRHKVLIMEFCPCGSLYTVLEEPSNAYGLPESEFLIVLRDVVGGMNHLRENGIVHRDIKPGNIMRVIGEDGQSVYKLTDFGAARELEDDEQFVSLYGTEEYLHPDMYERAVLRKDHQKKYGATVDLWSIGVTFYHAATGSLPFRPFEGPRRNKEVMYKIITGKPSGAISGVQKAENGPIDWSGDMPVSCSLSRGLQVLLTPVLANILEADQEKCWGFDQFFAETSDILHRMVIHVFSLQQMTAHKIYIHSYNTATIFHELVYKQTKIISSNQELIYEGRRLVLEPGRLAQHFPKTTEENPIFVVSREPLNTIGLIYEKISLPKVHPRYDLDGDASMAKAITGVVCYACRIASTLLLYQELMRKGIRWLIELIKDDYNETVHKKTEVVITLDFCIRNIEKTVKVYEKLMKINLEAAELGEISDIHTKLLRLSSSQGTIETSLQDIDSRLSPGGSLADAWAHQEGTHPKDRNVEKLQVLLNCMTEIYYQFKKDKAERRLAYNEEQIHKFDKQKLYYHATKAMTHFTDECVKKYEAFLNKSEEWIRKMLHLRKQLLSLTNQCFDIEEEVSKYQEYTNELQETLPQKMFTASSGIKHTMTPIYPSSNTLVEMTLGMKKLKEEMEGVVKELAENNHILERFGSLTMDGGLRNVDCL
# Procedure: as §1, §2, §3
# [9] = target: TLK1 (Homo sapiens, UniProt Q9UKI8); conditions: TLK1, 1µM; read-out: %Remaining activity at 1µM NU6300
# Chain of TLK1 (Q9UKI8 whole entry): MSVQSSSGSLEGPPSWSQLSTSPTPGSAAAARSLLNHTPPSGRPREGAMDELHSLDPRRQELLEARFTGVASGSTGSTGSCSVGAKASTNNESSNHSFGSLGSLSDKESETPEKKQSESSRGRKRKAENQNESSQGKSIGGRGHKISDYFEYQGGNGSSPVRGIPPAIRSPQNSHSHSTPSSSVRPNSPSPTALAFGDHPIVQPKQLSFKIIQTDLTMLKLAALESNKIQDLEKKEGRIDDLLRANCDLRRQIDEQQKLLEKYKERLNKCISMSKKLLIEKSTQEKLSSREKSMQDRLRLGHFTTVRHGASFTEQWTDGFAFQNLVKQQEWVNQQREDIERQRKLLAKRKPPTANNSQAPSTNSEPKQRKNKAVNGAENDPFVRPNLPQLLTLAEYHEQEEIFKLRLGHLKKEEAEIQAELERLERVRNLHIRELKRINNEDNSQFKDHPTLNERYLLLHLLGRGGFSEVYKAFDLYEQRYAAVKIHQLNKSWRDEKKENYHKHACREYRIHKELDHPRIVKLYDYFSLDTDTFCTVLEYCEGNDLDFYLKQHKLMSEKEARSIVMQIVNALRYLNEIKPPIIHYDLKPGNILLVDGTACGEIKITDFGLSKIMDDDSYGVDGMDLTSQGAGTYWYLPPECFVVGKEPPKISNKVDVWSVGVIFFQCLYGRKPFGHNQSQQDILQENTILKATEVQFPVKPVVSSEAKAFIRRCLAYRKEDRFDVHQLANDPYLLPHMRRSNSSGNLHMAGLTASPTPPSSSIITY
# Procedure: as §1, §2, §3
# [10] = target: T2, NUAK1 (Homo sapiens, UniProt O60285); conditions: NUAK1, 1µM; read-out: %Remaining activity at 1µM NU6300
# T2 sequence (O60285 1-661): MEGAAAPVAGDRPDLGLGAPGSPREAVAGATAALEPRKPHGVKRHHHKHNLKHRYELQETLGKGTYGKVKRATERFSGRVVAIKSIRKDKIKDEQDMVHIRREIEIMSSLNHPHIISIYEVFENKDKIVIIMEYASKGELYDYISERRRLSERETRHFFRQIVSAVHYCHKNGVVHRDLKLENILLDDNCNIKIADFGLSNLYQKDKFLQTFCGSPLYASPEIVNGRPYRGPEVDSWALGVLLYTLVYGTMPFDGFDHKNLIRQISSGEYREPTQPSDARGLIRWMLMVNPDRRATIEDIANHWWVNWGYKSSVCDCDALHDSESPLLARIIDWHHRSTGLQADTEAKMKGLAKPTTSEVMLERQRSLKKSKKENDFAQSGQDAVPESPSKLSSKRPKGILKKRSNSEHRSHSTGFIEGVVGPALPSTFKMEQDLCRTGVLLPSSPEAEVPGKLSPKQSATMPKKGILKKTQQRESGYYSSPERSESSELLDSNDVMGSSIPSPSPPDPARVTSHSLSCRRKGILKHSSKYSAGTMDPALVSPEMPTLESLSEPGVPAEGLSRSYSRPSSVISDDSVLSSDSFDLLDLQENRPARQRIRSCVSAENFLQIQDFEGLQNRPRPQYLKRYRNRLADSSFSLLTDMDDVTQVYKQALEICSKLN
# Procedure: as §1, §2, §3
# [11] = target: T3, TAK1 (Homo sapiens, UniProt O43318); conditions: TAK1, 1µM; read-out: %Remaining activity at 1µM NU6300
# T3 sequence (O43318 1-303 limits assumed): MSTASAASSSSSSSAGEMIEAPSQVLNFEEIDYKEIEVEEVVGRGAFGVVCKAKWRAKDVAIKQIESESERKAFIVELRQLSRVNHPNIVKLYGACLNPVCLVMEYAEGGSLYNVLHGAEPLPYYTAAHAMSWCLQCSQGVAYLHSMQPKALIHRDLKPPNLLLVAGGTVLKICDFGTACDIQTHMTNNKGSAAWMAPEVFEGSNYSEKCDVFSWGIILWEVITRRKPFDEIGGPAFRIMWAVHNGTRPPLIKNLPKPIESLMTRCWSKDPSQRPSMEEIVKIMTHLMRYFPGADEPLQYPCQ
# Procedure: as §1, §2, §3
# [12] = target: PLK1 (Homo sapiens, UniProt P53350); conditions: PLK1, 1µM; read-out: %Remaining activity at 1µM NU6300
# Procedure: as §1, §2, §3
# Chain of PAK6 (Q9NQU5 whole entry): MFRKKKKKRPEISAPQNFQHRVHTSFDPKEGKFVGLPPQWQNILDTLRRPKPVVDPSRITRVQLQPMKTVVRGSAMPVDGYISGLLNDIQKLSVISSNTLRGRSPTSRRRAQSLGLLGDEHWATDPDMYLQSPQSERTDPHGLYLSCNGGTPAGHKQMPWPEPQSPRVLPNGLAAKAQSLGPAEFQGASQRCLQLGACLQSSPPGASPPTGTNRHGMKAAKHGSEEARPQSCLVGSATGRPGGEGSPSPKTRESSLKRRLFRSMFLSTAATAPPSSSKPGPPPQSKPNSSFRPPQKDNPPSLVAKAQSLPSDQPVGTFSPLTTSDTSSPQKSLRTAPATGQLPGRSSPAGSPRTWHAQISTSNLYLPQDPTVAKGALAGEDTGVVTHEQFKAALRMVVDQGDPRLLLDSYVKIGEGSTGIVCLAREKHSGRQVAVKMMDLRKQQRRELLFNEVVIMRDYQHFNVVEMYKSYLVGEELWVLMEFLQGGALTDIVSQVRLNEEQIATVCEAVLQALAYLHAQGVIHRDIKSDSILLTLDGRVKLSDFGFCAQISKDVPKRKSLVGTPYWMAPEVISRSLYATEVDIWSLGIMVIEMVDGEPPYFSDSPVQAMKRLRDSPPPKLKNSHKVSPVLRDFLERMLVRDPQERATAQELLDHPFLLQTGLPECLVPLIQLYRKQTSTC
smiles,measurement,setting,value
"C=CS(=O)(=O)c1ccc(Nc2nc(OCC3CCCCC3)c3nc[nH]c3n2)cc1 [NU6300, 6-(cyclohexylmethoxy)-N-(4-(vinylsulfonyl)phenyl)-9H-purin-2-amine]",remaining activity at 1 µM,[1],73%
same,remaining activity at 1 µM,[2],55%
same,remaining activity at 1 µM,[3],17%
same,remaining activity at 1 µM,[4],101%
same,remaining activity at 1 µM,[5],104%
same,remaining activity at 1 µM,[6],67%
same,remaining activity at 1 µM,[7],69%
same,remaining activity at 1 µM,[8],45%
same,remaining activity at 1 µM,[9],52%
same,remaining activity at 1 µM,[10],2%
same,remaining activity at 1 µM,[11],14%
same,remaining activity at 1 µM,[12],90%
